Experimental data reported in US20240376035A1, “METHOD FOR PRODUCING HESPERETIN DIHYDROCHALCONE” (SYMRISE AG, priority 2022, published 2024).

How the values were obtained:
trained expert panel = assay: Sensory descriptive analysis of ice tea prototypes in different bases (Example 15); format: in vivo; conditions: for ANOVA (sweetness factor score): 10 ppm hesperetin dihydrochalcone and/or 3 ppm hesperetin; for effect on the sweetness factor: main and interaction effects in different bases, all sign. p<0.0001
Description: Based on an experimental design, 86 ice tea prototypes (drinkable preparations) were created that systematically varied regarding different sources of sweetness conveyed by sugars (e.g. HFCS (high fructose corn syrup), invert sugar syrup), sweeteners (Reb A, Reb D, Reb M, sucralose, acesulfame K) as well as hesperetin dihydrochalcone (HC) and hesperetin (HT) (the results are depicted in Table 2).
In order to investigate the effect of HT and HC on perceived sweetness dimensions, the 86 samples were profiled (sensory descriptive analysis) by a trained expert panel consisting of 12 panelists. The panelists were trained on an ice tea language with focus on sweetness attributes. Each attribute was scored on an unstructured line scale (10 cm) for its perceived intensity. To ensure high data reliability, every sample was tested twice. The sweetness attributes “sweetness onset”, “sweetness overall intensity” and “sweetness long-lastingness” were aggregated to a so-called sweetness factor using factor analysis (principal component analysis with VARIMAX rotation). The sweetness factor score runs from neg. infinity to positive infinity. By applying statistical modelling (JMP software: fit model: standard least squares, Analysis of Variance: DF 86, F 19.6907, p<0.0001; Rsquare 0.972) all significant main and two-way interaction effects were identified amongst which HC (p<0.0001), HT (p<0.0001) and the interaction of HC and HT (p<0.0001) were identified. These main and interaction effects were further tested in different bases (see table 2) using ANOVA, p<0.05; post hoc test: LSD.

[1] = preparations having a high content of acid such as lemonades or fruit juices; cited from earlier work
[2] = Acesulfame K Ice tea Base, 60 ppm
[3] = HFCS Ice tea Base, 2 wt. % High Fructose corn syrup
[4] = Invert Sugar Syrup Ice tea Base, 2 wt. % invert sugar syrup
[5] = Reb A Ice tea Base, 60 ppm rebaudioside A
[6] = Reb A/Reb D Ice tea Base, 60 ppm rebaudioside A/60 ppm rebaudioside D
[7] = Reb A/Reb M Ice tea Base, 60 ppm rebaudioside A/45 ppm rebaudioside M
[8] = Reb M/Reb D Ice tea Base, 45 ppm rebaudioside M/60 ppm rebaudioside D
[9] = Sucralose Ice tea Base, 100 ppm sucralose

SMILES | ANOVA (sweetness factor score) (trained expert panel; [2]) | ANOVA (sweetness factor score) (trained expert panel; [3]) | ANOVA (sweetness factor score) (trained expert panel; [4]) | ANOVA (sweetness factor score) (trained expert panel; [5]) | ANOVA (sweetness factor score) (trained expert panel; [6]) | ANOVA (sweetness factor score) (trained expert panel; [7]) | ANOVA (sweetness factor score) (trained expert panel; [8]) | ANOVA (sweetness factor score) (trained expert panel; [9]) | ANOVA (sweetness factor score) (trained expert panel; Sugar Free Ice tea Base) | effect on the sweetness factor (trained expert panel) | effectivity as intensifier of the sweet flavour [1]
COc1ccc([C@@H]2CC(=O)c3c(O)cc(O)cc3O2)cc1O [Hesperetin, hesperetin] | −2.4 | −3.2 | −3.3 | −2.8 | −2.4 | −2.3 | −2.6 | −3.1 | −3.6 | smallest positive effect | diminished effectivity
COc1ccc(CCC(=O)c2c(O)cc(O)cc2O)cc1O [Hesperetin dihydrochalcone] | −0.1 | −0.9 | −1 | −0.5 | −0.1 | 0 | −0.3 | −0.8 | −1.3 | positive effect | –
